Experimental data from patent US5281608A, “Substituted tetrahydropyrido[3',4':4,5]-pyrrolo[3,2-c]quinolines” (American Home Products Corporation, priority 1992, dated 1994).
Converted amounts (≈) assume the structure as drawn.

Legend:
[1] = test system: rat limb bones (IL-1 induced bone resorption); test: Bone resorption assay (45Ca release from rat limb bones), IL-1 induced; assay type: cell-based, rat (Sprague-Dawley CD); settings: 48 h; for IC50: Rattus norvegicus, read-out: Inhibition of Bone Resorption, IL-1 Induced (IC50)
Experimental: (§1) The ability of the compounds of the invention to modify the process of bone resorption is evaluated in the bone resorption assay measuring ^45 Ca release from rat limb bones.
(§2) Limb bone preparation. Timed pregnant Sprague-Dawley CD® rats (Charles River) are administered 100 μCi ^45 CaCl2 (NEN calcium -45 NEZ-013) in 100 μl of 0.9% saline, subcutaneously, on day 18 of gestation. The rats are sacrificed the following day by CO2 asphyxiation. The fetuses are removed and the right forelimbs excised and placed in a Petri dish containing ice cold explant medium consisting of modified BGJb -Fitton Jackson media (custom formulation, Gibco No. 78-0088) adjusted to pH 7.3 to which 10 mM TES is added. The modified BGJb media is obtained without salts, glucose or bicarbonate and is supplemented before use with 0.1 mM MgCl2, 1.25 mM CaCl2, 5.3 mM KCl, 0.7 mM MgSO4, 130 mM NaCl, 1.0 mM NaH2 PO4, 1 g/L glucose, 50 mg/L Na acetate and 100 U/ml penicillin G. The medium is sterilized by passage through a 0.2 μ M filter (Nalge). Under a dissecting microscope, the bones are gently cleaned of adherent tissue and the cartilaginous ends removed. Incubation and drug treatment. The midshafts are placed, individually, on 3×3 mm squares of filter paper (Gelman GN-6 metricel filters; […] pore size) which rest on stainless steel screens in wells of 24-well culture plates containing 0.5 mL of preincubation medium. The preincubation medium is brought to 37° C. prior to transfer of bones. The preincubation medium consists of the modified BGJb medium (with salts and glucose as above), pH 7.3, containing 29 mM NaHCO3. After incubation for 18-24 hours at 37° C. in 5% CO2, the bones are transferred on their screen/filter paper supports to new plates containing, in a total volume of 0.5 mL/well at 37° C., the test compound diluted in preincubation medium supplemented with 15% heat inactivated horse serum (Gibco No. 230-6050), pH 7.3, with a bone resorption stimulating agent (e.g. parathyroid hormone [PTH] or interleukin-1 [IL-1]). For compounds that require nonaqueous solvents, dilutions are made from the appropriate stock solution with medium. In these instances, basal and bone resorption stimulated controls exposed to an equivalent concentration of the vehicle are included. An additional group of bones that have been subjected to boiling for 1 hour (kill control) are used to establish background, non cell mediated, exchange of ^45 Ca. The right ulna and radius from each fetus are used. Both bones are subjected to the same treatment and each treatment group consists of bones from 4 or more fetuses. Treatments are randomly assigned using a preclinical statistics program (PS-ALLOC). After a 48 hour incubation at 37° C. in 5% CO2, the bones are removed from the medium and extracted in 0.5 mL of 0.1N HCl for 1 or more days. Duplicate 150 μL aliquots of the incubation medium and the bone extract are analyzed for ^45 Ca radioactivity in 5 mL of liquid scintillation cocktail.
(§3) The percentage of bone ^45 Ca released into the medium is determined as follows: [formula] Results are normally expressed as the ratio of the percent ^45 Ca release of the experimental group versus the appropriate vehicle control, or as an IC50 value.

[2] = test system: rat limb bones (PTH-induced bone resorption); test: Bone resorption assay (45Ca release from rat limb bones), PTH-induced; assay type: cell-based, rat (Sprague-Dawley CD); settings: 48 h; for IC50: Rattus norvegicus, read-out: Inhibition of Bone Resorption, PTH-Induced (IC50)
Experimental: as §1, §2, §3

[3] = test system: rabbit articular chondrocytes (IL-1-induced neutral protease release); test: Inhibition of IL-1-induced release of neutral protease from rabbit articular chondrocytes; assay type: cell-based, rabbit (Male New Zealand White); settings: Oryctolagus cuniculus, Chondrocyte, human IL-1 stimulated, 24 h
Experimental: The ability of the compounds of the invention to inhibit interleukin 1 is measured by the ability of the test compounds to inhibit the IL-1-induced release of neutral protease from rabbit articular chondrocytes.
Male New Zealand White rabbits are anesthetized with 50 mg/kg of ketamine (i.m.) and killed by an intracardiac injection of 3 mls. of Nembutal. The knee joints of both legs are resected and the articular surfaces are exposed. Cartilage slices are obtained using a scalpel and are placed in a tissue culture dish (100 mm diameter) containing 10 mls of Hank's balanced salt solution (HBSS). The chondrocytes within the cartilage slices are then liberated by a series of enzyme digestions. The slices are incubated for 10 minutes at 37° C. in 0.05% hyaluronidase (Sigma H-3884), rinsed with HBSS and incubated with 0.2% trypsin (Sigma T-2395) for 10 minutes at 37° C. The slices are rinsed again and incubated for 10 minutes at 37° C. with 1.2% collagenase (Sigma C-5138). The slices are then rinsed again with HBSS and resuspended in 10 ml of Ham's F-12 medium containing 10% fetal bovine calf serum (FCS) and 0.2 % collagenase and incubated overnight at 37° C. in a 5% CO2 incubator. The next day, the medium containing the digested cartilage fragments and liberated chondrocytes is transferred to a 15 ml centrifuge tube and the cells are collected by centrifugation and washed twice and resuspended in Ham's F-12 medium. The cells are then plated into 24-well tissue culture plates (2×10^5 cells/well) and incubated at 37° C. until confluent (usually 4-6 days).
The confluent chondrocytes are rinsed twice with serum-free Ham's F-12 medium and 1 ml is added to each well. Fifty μl of purified human IL 1 (100 Units/ml; Genzyme Corporation, Boston, Mass.) is then added to stimulate these cells to secrete neutral protease. To measure drug effects, the cells are treated with test compound 10 minutes prior to addition of IL-1. The standard screening dose is 10 μM. Twenty-four hours after IL-1 stimulation, supernatant fluids are collected and assayed for neutral protease activity.
The neutral protease activity of chondrocyte supernatant fluids is determined by their ability to degrade an insoluble protease substrate, azocoll (Sigma). Supernatants are treated for 10 minutes at room temperature with 350 μM p-aminophenylmurcuric acetate to activate the latent enzyme. Three hundred μl of supernatant is then mixed with 500μl of a 20 mg/ml suspension of azocoll and incubated at 37° C. for 18-24 hours with gentle rocking. The mixtures are centrifuged and the amount of substrate hydrolyzed is determined by measuring the absorbance of the supernatant at 520 nm.
Drug effects are calculated as the % change in enzyme activity (absorbance)by supernatants from drug-treated chondrocytes relative to enzyme activity of supernatants from vehicle-treated chondrocytes as follows: [formula]

SMILES	IC50 [1] [µg/mL]	IC50 [2] [µg/mL]	Inhibition of Bone Resorption, IL-1 Induced (activity in words) [1]	Inhibition of Bone Resorption, PTH-Induced (activity in words) [2]	inhibition at 10 µM [3] [%]	inhibition at 0.1 µM ([3]; dose 0.1 μM) [%]	inhibition at 1 µM ([3]; dose 1 μM) [%]	IC50 [3] [µM]
CCOC(=O)c1ccc(N2CCc3[nH]c4c(cnc5cc(Cl)ccc54)c3C2)cc1 [Example 2, 4-(3-Chloro-8,9,10,11-tetrahydro-7H-pyrido[3',4':4,5]-pyrrolo[3,2-c]quinolin-8-yl)benzoic acid ethyl ester]	3.39 (≈ 8.35 µM)	0.98 (≈ 2.41 µM)	Active	Active	38			
CCOC(=O)c1ccc(NC(=O)N2CCc3[nH]c4c(cnc5cc(Cl)ccc54)c3C2)cc1 [Example 15, 4-[[(3-Chloro-7,9,10,11-tetrahydro-8H-pyrido[3',4':4,5]pyrrolo-[3,2-c]quinoline-8-yl)carbonyl]amino]benzoic acid ethyl ester]		5.5 (≈ 12.3 µM)		Active				
COc1ccc(S(=O)(=O)N2CCc3[nH]c4c(cnc5cc(Cl)ccc54)c3C2)cc1 [Example 21, 3-Chloro-8,9,10,11-tetrahydro-8-[(4-methoxyphenyl)sulfonyl]-7H-pyrido[3',4':4,5]pyrrolo[3,2-c]quinoline]	8.48 (≈ 19.8 µM)		Active					
O=C(Nc1ccccc1)N1CCc2[nH]c3c(cnc4cc(Cl)ccc43)c2C1 [Example 7, 3-Chloro-7,9,10,11-tetrahydro-N-phenyl-8H-pyrido-[3',4':4,5]pyrrolo[3,2-c]quinoline-8-carboxamide]					21			
N#Cc1ccc(C(=O)N2CCc3[nH]c4c(cnc5cc(Cl)ccc54)c3C2)cc1 [Example 5, 3-Chloro-8-(4-cyanobenzoyl)-8,9,10,11-tetrahydro-7H-pyrido[3',4':4,5]pyrrolo[3,2-c]quinoline]					28			
O=C(c1cccs1)N1CCc2[nH]c3c(cnc4cc(Cl)ccc43)c2C1 [Example 4, 3-Chloro-8,9,10,11-tetrahydro-8-(2-thienylcarbonyl)-7H-pyrido[3',4':4,5]pyrrolo[3,2-c]quinoline]			Active at <5 μg/ml		64	14	20	7.3
N#Cc1ccc(N2CCc3[nH]c4c(cnc5cc(Cl)ccc54)c3C2)cc1 [Example 3, 4-(3-Chloro-8,9,10,11-tetrahydro-7H-pyrido[3',4':4,5]-pyrrolo[3,2-c]quinolin-8-yl)benzonitrile]					22			
COc1cccc(NC(=O)N2CCc3[nH]c4c(cnc5cc(Cl)ccc54)c3C2)c1 [Example 20, 3-Chloro-7,9,10,11-tetrahydro-N-(3-methoxyphenyl)-8H-pyrido-[3',4':4,5]pyrrolo[3,2-c]quinoline-8-carboxamide]	0.0088 (≈ 0.0216 µM)	0.059 (≈ 0.145 µM)	Active	Active				

Now from value to compound, other results behind:

IC50 [1] [µg/mL]	IC50 [2] [µg/mL]	SMILES	Inhibition of Bone Resorption, IL-1 Induced (activity in words) [1]	Inhibition of Bone Resorption, PTH-Induced (activity in words) [2]	inhibition at 10 µM [3] [%]	inhibition at 0.1 µM ([3]; dose 0.1 μM) [%]	inhibition at 1 µM ([3]; dose 1 μM) [%]	IC50 [3] [µM]
0.307 (≈ 0.873 µM)	2.88 (≈ 8.19 µM)	O=C(c1ccco1)N1CCc2[nH]c3c(cnc4cc(Cl)ccc43)c2C1 [Example 9, 3-Chloro-8-(2-furanylcarbonyl)-8,9,10,11-tetrahydro-7H-pyrido[3',4':4,5]pyrrolo[3,2-c]quinoline]	Active	Active	36			
1.96 (≈ 5.4 µM)		O=C(c1ccncc1)N1CCc2[nH]c3c(cnc4cc(Cl)ccc43)c2C1 [Example 8, 3-Chloro-8,9,10,11-tetrahydro-8-(4-pyridinylcarbonyl)-7H-pyrido[3',4':4,5]pyrrolo[3,2-c]quinoline]	Active	Active at 10 μg/ml	35			
1.71 (≈ 4.22 µM)	0.944 (≈ 2.33 µM)	O=C(NC(=O)N1CCc2[nH]c3c(cnc4cc(Cl)ccc43)c2C1)c1ccccc1 [Example 13, N-Benzoyl-3-chloro-7,9,10,11-tetrahydro-8H-pyrido-[3',4':4,5]pyrrolo[3,2-c]quinoline-8-carboxamide]	Active	Active				
2.39 (≈ 5.87 µM)		S=C(NCc1ccccc1)N1CCc2[nH]c3c(cnc4cc(Cl)ccc43)c2C1 [Example 18, 3-Chloro-7,9,10,11-tetrahydro-N-(phenylmethyl)-8H-pyrido-[3',4':4,5]pyrrolo[3,2-c]quinoline-8-carbothioamide]	Active					
1.21 (≈ 3.08 µM)	1.2 (≈ 3.05 µM)	S=C(Nc1ccccc1)N1CCc2[nH]c3c(cnc4cc(Cl)ccc43)c2C1 [Example 14, 3-Chloro-7,9,10,11-tetrahydro-N-phenyl-8H-pyrido-[3',4':4,5]pyrrolo[3,2-c]quinoline-8-carbothioamide]	Active	Active				
0.067 (≈ 0.16 µM)		O=C(c1cc2ccccc2s1)N1CCc2[nH]c3c(cnc4cc(Cl)ccc43)c2C1 [Example 10, 8-(Benzo[b]thien-2-ylcarbonyl)-3-chloro-8,9,10,11-tetrahydro-7H-pyrido[3',4':4,5]pyrrolo[3,2-c]quinoline]	Active		24			
1.65 (≈ 3.92 µM)	1.16 (≈ 2.76 µM)	O=C(NC(=S)N1CCc2[nH]c3c(cnc4cc(Cl)ccc43)c2C1)c1ccccc1 [Example 17]	Active	Active				
6.22 (≈ 15.9 µM)	2.52 (≈ 6.45 µM)	O=C(NCc1ccccc1)N1CCc2[nH]c3c(cnc4cc(Cl)ccc43)c2C1 [Example 16, 3-Chloro-7,9,10,11-tetrahydro-N-(phenylmethyl)-8H-pyrido-[3',4':4,5]pyrrolo[3,2-c]quinoline-8-carboxamide]	Active	Active				
